Data: US9279769B2, “Proteins that efficiently generate singlet oxygen” (The Regents of the University of California, priority 2010, dated 2016)

Experiments:
[1] = target: T1, Arabidopsis thaliana phototropin 2 (AtPhot2) LOV2 domain (residues 387-492) variant AtminiSOG0.2 (miniSOG0.2, miniSOG), 1387M/N390S/S394T/S409G/C426G/F470L, SEQ ID NO: 2 (Arabidopsis thaliana, UniProt P93025, C426G/F470L/N390S/S394T/S409G); test: Equilibrium dialysis of miniSOG (FMN dissociation constant); format: binding
T1 construct: can be engineered into a small (106-residue) SOG; made in house
Excerpt: Mass spectrometry confirmed that the flavin cofactor is FMN. Equilibrium dialysis reported a dissociation constant of 170±8 pM (Table 2), similar to values for some flavoproteins (e.g., 260±60 pM for a flavodoxin [23]) and consistent with the crystal structures of LOV domains, which show FMN deeply buried inside the protein core.

[2] = target: flavodoxin; conditions: literature value for a flavodoxin [23]; read-out: dissociation constant; cited from earlier work
[3] = literature value; cited from earlier work
[4] = test system: HEK293 cells; test: FMN content of HEK293 cells after overexpression; format: cell-based; conditions: overexpression in HEK293 cells
Excerpt: (§1) Feedback pathways involving enzymes such as riboflavin kinase (EC 2.7.1.26) and FAD (flavin adenine dinucleotide) diphosphatase (EC 3.6.1.18) probably regulate intracellular FMN to titrate endogenous flavoproteins and miniSOG [25]. Riboflavin kinase phosphorylates riboflavin into FMN, while FAD diphosphatase catalyzes the production of FMN from FAD.

[5] = fluorescence quantum yield; format: physicochemical
Description: (§2) FIG. 3. (A) Absorbance spectrum of miniSOG0.2 determined between 400 nm and 500 nm (B) Normalized absorbance (left) and emission (right) spectra of miniSOG0.2. The fluorescence quantum yield of miniSOG0.2 was determined to be 0.30. (C) ADPA degradation by miniSOG0.2. ADPA was mixed with miniSOG0.2 in PBS and illuminated at 480/30 nm. ADPA emission spectra taken after indicated illumination times. (D) Degradation of ADPA by illumination of miniSOG0.2 (▴) or free FMN (♦). Flavin mononucleotide (FMN) was used as the standard for the quantum yield measurement. The data represents one typical measurement. The averaged absorbance intensity of FMN and miniSOG0.2 in this measurement is 0.064 and 0.070 respectively in arbitrary units. Singlet-oxygen-generation quantum yield of miniSOG0.2 was determined to be 0.47±0.05 (from three independent measurements).
(§3) […] was synthesized by overlap extension PCR [48]. Genetic libraries were constructed by saturation and random mutagenesis and DNA shuffling. Mutants were fused to IFP1.4 by overlap extension PCR and cloned into a modified pBAD vector containing the heme oxygenase-1 gene from cyanobacteria. Libraries were expressed in E. coli strain TOP10 and screened by imaging the agar plates with colonies in the IFP channel before and after blue light illumination. Protein purification and spectroscopic characterization experiments were done as described.

[6] = test system: HEK293 cells; test: growth rate of HEK293 cells overexpressing the protein, no light; format: cell-based; conditions: for Cell number: HEK293 cells; for toxicity in the absence of light: overexpression in cells, no illumination
Excerpt: as §1
DNA encoding miniSOG with codons optimized for mammals was synthesized by overlap extension PCR [48]. MiniSOG fusions were cloned into pcDNA3.1 vector. HEK293 and HeLa cells were transfected with miniSOG or chimera cDNAs using Fugene, then imaged 24-48 h later. Cultured cortical neurons were transfected by Amaxa electroporation (Lonza AG, Germany) and imaged 1-2 wk later.

[7] = 1O2 quantum yield measured with ADPA as 1O2 sensor, FMN as standard; format: physicochemical; conditions: for 1O2 (singlet oxygen generation) quantum yield: ADPA sensor in PBS, illuminated at 480/30 nm, FMN standard
Description: as §2
(§4) To increase the brightness of the C426G mutant, we also performed saturation mutagenesis of other residues surrounding the chromophore binding site. […] The ^1O2 quantum yield of miniSOG0.2 (0.47±0.05) was measured using anthracene-9,10-dipropionic acid (ADPA) as a ^1O2 sensor (FIG. 1E). Free FMN was used as the standard for the measurement of ^1O2 generation (quantum yield 0.51).

[8] = absorbance spectrum, extinction coefficients; format: physicochemical
Description: as §4, §3

`Cc1cc2nc3c(=O)[nH]c(=O)nc-3n(C[C@H](O)[C@H](O)[C@H](O)COP(=O)(O)O)c2cc1C` [FMN, flavin mononucleotide] showed a Kd ([1]; [apo] * [FMN]/[holo], equilibrium dialysis, dialysis time 24 hrs) of 0.124 ± 0.0057 nM, a Kd ([1]; [apo] * [FMN]/[holo], equilibrium dialysis, dialysis time 48 hrs) of 0.174 ± 0.0053 nM and a Kd ([1]; [apo] * [FMN]/[holo], equilibrium dialysis, dialysis time 72 hrs) of 0.17 ± 0.0084 nM. For the same molecule, the Kd ([1]; dissociation constant (binds endogenous FMN very tightly), summary statement) was roughly 0.1 nM, the Kd ([1]; dissociation constant, equilibrium dialysis, FMN cofactor) was 0.17 ± 0.008 nM and the Kd [2] was 0.26 ± 0.06 nM.
For `Cc1cc2nc3c(=O)[nH]c(=O)nc-3n(C[C@H](O)[C@H](O)[C@H](O)COP(=O)(O)O)c2cc1C` [Free FMN, flavin mononucleotide], the 1O2 quantum yield [3] is listed as 0.51.
In the case of `O=c1ccc2nc3ccc(O)c([As]4SCCS4)c3oc-2c1[As]1SCCS1` [ReAsH], the 1O2 quantum yield [3] is listed as 0.024.
In the case of `CC1=NC(=Cc2ccc(O)cc2)C(=O)N1C` [naked GFP chromophore], the 1O2 quantum yield [3] is given as 0.004.
In the case of “AtminiSOG0.2: 106-residue mutant of Arabidopsis thaliana phototropin 2 residues 387-492, 1387M/N390S/S394T/S409G/C426G/F470L, SEQ ID NO:2, binds FMN”, the “increase of FMN content” value [4] is reported as roughly 3 fold, the fluorescence quantum yield ([5]; listed as AtminiSOG) is reported as 0.30 and the fluorescence quantum yield ([5]; listed as miniSOG) is reported as 0.37. The fluorescence quantum yield ([5]; listed as miniSOG0.2) was 0.30, the Cell number ([6]; Day 0, transfection efficiency >90%) was 200 10^3 and the Cell number ([6]; Day 1, transfection efficiency >90%) was 390 10^3. For the same molecule, the Cell number ([6]; Day 2, transfection efficiency >90%) was 940 10^3, the “toxicity in the absence of light” value [6] was “no obvious toxicity” and the “toxicity in the absence of light” value ([6]; listed as AtminiSOG) was “without any obvious toxicity”. The “1O2 quantum efficiency relative to ReAsH on a tetracysteine motif” value [7] was “about 20 times”, the “1O2 (singlet oxygen generation) quantum yield” value ([7]; listed as AtminiSOG) was 0.47 and the “1O2 (singlet oxygen generation) quantum yield” value ([7]; listed as miniSOG0.2) was 0.47±0.05. For the same molecule, the extinction coefficient ([8]; at 448 nm) was “(16.7±0.7)×10^3 M^−1cm^−1”, the extinction coefficient ([8]; at 448 nm, listed as AtminiSOG) was 16,700 M^−1cm^−1 and the extinction coefficient ([8]; at 473 nm) was “(13.6±0.5)×10^3 M^−1cm^−1”. The extinction coefficient ([8]; at 473 nm, listed as AtminiSOG) was 13,600 M^−1cm^−1.
